# Reference: US7202241B2, “Benzoxazine derivatives and uses thereof” (Roche Palo Alto LLC, priority 2003, dated 2007)
# Molecular target: T1, recombinant human 5-HT6 receptor (Homo sapiens, UniProt P50406)
# T1 construct: expressed in transfected cells; membranes
# Experiment: in vitro radioligand binding, [3H]LSD competition in membranes of HEK293 cells expressing 5-HT6
# Settings: [3H]LSD (5 nM) displacement, HEK293 cell membranes, 60 min at 37° C., pH 7.4
# Protocol: This example illustrates in vitro radioligand binding studies of compound of formula (I).
# The binding activity of compounds of this invention in vitro was determined as follows. Duplicate determinations of ligand affinity are made by competing for binding of [^3H]LSD in cell membranes derived from HEK293 cells stably expressing recombinant human 5-HT6 receptor. This cell line was prepared by the method described by Monsma et al., Molecular Pharmacology, Vol. 43 pp. 320–327 (1993).
# All determinations were made in assay buffer containing 50 mM Tris-HCl, 10 mM MgSO4, 0.5 mM EDTA, 1 mM ascorbic acid, pH 7.4 at 37° C., in a 250 microliter reaction volume. Assay tubes containing [^3H] LSD (5 nM), competing ligand, and membrane were incubated in a shaking water bath for 60 min. at 37° C., filtered onto Packard GF-B plates (pre-soaked with 0.3% PEI) using a Packard 96 well cell harvester and washed 3 times in ice cold 50 mM Tris-HCl. Bound [^3H] LSD was determined as radioactive counts per minute using Packard TopCount.
# Displacement of [3H]LSD from the binding sites was quantified by fitting concentration-binding data to a 4-parameter logistic equation:
# [formula] where Hill is the Hill slope, [ligand] is the concentration of competing radioligand and IC50 is the concentration of radioligand producing half-maximal specific binding of radioligand. The specific binding window is the difference between the Bmax and the basal parameters.
# T1 sequence (P50406 whole entry): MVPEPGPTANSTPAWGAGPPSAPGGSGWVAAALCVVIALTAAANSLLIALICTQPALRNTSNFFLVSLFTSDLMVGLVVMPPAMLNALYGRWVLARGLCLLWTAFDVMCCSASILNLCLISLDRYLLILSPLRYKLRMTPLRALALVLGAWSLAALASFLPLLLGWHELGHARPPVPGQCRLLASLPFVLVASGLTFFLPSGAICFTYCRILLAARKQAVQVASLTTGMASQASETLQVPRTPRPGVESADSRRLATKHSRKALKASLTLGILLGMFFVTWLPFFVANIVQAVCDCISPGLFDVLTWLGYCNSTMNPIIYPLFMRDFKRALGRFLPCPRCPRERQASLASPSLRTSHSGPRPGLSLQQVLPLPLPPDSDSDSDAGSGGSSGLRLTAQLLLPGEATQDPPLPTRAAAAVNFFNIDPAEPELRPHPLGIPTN
pKi,Compound,Ki [nM]
,"O=S(=O)(c1cccc(F)c1)N1CC2(CCC2)Oc2c(N3CCNCC3)cccc21 [4-(3-Fluoro-benzenesulfonyl)-2,2-spiro-cyclobutan-8-piperazin-1-yl-3,4-dihydro-2H-benzo[1,4]oxazine]",1.17
,"CC1(C)CN(S(=O)(=O)c2ccccc2F)c2cc(F)cc(N3CCNCC3)c2O1 [6-Fluoro-4-(2-fluoro-benzenesulfonyl)-2,2-dimethyl-8-piperazin-1-yl-3,4-dihydro-2H-benzo[1,4]oxazine]",0.209
,"O=S(=O)(c1ccccc1F)N1CCOc2c(N3CCNCC3)cc(F)cc21 [6-Fluoro-4-(2-fluoro-benzenesulfonyl)-8-piperazin-1-yl-3,4-dihydro-2H-benzo[1,4]oxazine]",0.724
,"CC1(C)CN(S(=O)(=O)c2ccccc2F)c2cccc(N3CCNCC3)c2O1 [4-(2-Fluoro-benzenesulfonyl)-2,2-dimethyl-8-piperazin-1-yl-3,4-dihydro-2H-benzo[1,4]oxazine]",0.209
9.30,"O=S(=O)(c1cccc(Cl)c1)N1CC2(CCC2)Oc2c(N3CCNCC3)cccc21 [4-(3-Chloro-benzenesulfonyl)-2,2-spiro-cyclobutan-8-piperazin-1-yl-3,4-dihydro-2H-benzo[1,4]oxazine]",
,"Cc1cc(N2CCNCC2)c2c(c1)N(S(=O)(=O)c1cccc(F)c1)CCO2 [4-(3-Fluoro-benzenesulfonyl)-6-methyl-8-piperazin-1-yl-3,4-dihydro-2H-benzo[1,4]oxazine]",2
,"O=S(=O)(c1ccccc1F)N1CCOc2c(N3CCNCC3)cccc21 [4-(2-Fluoro-benzenesulfonyl)-8-piperazin-1-yl-3,4-dihydro-2H-benzo[1,4]oxazine]",1.26
,"O=S(=O)(c1ccccc1Cl)N1CCOc2c(N3CCNCC3)cccc21 [4-(2-Chloro-benzenesulfonyl)-8-piperazin-1-yl-3,4-dihydro-2H-benzo[1,4]oxazine]",2.14
,"Cc1cc(N2CCNCC2)c2c(c1)N(S(=O)(=O)c1cccc(F)c1)CC(C)(C)O2 [4-(3-Fluoro-benzenesulfonyl)-2,2,6-trimethyl-8-piperazinyl-yl-3,4-dihydro-2H-benzo[1,4]oxazine]",0.407
,"O=S(=O)(c1cccc(F)c1)N1CCOc2c(N3CCNCC3)cccc21 [4-(3-Fluoro-benzenesulfonyl)-8-piperazin-1-yl-3,4-dihydro-2H-benzo[1,4]oxazine]",11.2
